Laboratory results: ChEMBL document CHEMBL1681705, “Optimisation of ITK inhibitors through successive iterative design cycles” (Bioorg Med Chem Lett, 2011)

How the values were obtained:
[1] = target: Tyrosine-protein kinase BTK (Homo sapiens) (UniProt Q06187); test: Inhibition of BTK at 1 uM; values are per cent of control
[2] = target: Tyrosine-protein kinase HCK (Homo sapiens) (UniProt P08631); test: Inhibition of Hck at 1 uM; values are per cent of control
[3] = target: T1, Tyrosine-protein kinase ITK/TSK (Homo sapiens) (UniProt Q08881); test: Inhibition of Itk at 1 uM; values are per cent of control
T1 sequence (whole entry): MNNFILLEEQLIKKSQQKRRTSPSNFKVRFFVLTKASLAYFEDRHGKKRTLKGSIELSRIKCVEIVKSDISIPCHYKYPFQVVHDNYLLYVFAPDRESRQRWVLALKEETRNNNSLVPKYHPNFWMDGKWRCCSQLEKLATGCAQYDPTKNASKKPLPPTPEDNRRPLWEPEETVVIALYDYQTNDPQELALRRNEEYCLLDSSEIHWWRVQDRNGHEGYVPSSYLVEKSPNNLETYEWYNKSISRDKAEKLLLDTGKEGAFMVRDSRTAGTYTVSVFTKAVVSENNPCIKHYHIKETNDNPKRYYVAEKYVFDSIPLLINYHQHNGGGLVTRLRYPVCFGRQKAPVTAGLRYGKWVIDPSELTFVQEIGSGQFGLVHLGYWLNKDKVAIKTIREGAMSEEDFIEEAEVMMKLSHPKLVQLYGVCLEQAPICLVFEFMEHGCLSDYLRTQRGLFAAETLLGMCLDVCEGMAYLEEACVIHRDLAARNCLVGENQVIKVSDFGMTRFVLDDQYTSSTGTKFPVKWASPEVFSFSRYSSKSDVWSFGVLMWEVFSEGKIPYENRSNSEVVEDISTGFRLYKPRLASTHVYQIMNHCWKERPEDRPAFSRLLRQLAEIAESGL

[4] = target: T2, Dual specificity mitogen-activated protein kinase kinase 6 (Homo sapiens) (UniProt P52564); test: Inhibition of MKK6 at 1 uM; values are per cent of control
T2 sequence (whole entry): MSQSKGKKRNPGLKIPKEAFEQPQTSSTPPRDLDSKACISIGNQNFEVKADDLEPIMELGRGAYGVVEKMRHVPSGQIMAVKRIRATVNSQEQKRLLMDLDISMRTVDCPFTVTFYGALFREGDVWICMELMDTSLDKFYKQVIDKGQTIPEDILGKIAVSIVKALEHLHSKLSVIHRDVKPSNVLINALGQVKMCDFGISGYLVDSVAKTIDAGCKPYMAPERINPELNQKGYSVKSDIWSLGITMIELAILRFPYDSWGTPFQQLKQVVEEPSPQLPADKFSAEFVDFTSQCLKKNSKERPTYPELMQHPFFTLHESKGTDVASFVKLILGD

[5] = target: Tyrosine-protein kinase BTK (Homo sapiens) (UniProt Q06187); test: Inhibition of BTK at 0.1 uM; values are per cent of control
[6] = target: T3, Ephrin type-A receptor 3 (Homo sapiens) (UniProt P29320); test: Inhibition of EphA3 at 1 uM; values are per cent of control
T3 sequence (whole entry): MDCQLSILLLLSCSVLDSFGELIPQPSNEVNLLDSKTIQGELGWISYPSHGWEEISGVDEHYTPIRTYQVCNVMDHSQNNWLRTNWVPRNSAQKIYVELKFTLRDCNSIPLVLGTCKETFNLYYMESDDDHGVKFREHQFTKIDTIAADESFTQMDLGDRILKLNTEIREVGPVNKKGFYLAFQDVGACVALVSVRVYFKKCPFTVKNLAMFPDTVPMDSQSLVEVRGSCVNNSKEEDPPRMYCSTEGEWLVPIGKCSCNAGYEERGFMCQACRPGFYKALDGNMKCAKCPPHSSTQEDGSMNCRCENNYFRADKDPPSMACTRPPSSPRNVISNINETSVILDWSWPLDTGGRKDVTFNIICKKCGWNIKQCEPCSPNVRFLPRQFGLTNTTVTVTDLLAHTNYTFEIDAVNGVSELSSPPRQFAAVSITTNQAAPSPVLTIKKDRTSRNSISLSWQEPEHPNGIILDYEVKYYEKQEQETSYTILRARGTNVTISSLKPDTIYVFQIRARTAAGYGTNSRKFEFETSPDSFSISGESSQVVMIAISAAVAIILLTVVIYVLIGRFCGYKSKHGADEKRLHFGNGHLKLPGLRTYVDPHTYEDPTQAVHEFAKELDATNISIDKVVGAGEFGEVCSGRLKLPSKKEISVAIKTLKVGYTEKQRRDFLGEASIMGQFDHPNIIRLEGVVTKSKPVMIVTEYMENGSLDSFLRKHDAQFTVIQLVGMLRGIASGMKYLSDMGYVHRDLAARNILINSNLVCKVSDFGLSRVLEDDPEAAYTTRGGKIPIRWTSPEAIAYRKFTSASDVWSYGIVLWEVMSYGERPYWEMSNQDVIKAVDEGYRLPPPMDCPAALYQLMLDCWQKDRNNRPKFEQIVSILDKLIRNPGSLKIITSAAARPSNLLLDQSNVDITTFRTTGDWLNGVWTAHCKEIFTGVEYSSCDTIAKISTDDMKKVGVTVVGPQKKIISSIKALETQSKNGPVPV

[7] = target: Ephrin type-A receptor 7 (Homo sapiens) (UniProt Q15375); test: Inhibition of EphA7 at 1 uM; values are per cent of control
[8] = target: Mitogen-activated protein kinase 10 (Homo sapiens) (UniProt P53779); test: Inhibition of JNK3 at 0.1 uM; values are per cent of control
[9] = target: Dual specificity mitogen-activated protein kinase kinase 1 (Homo sapiens) (UniProt Q02750); test: Inhibition of MEK1 at 0.1 uM; values are per cent of control
[10] = target: Death-associated protein kinase 2 (Homo sapiens) (UniProt Q9UIK4); test: Inhibition of DAPK2 at 0.1 uM; values are per cent of control
Death-associated protein kinase 2 (Homo sapiens), sequence (Q9UIK4 whole entry, looked up): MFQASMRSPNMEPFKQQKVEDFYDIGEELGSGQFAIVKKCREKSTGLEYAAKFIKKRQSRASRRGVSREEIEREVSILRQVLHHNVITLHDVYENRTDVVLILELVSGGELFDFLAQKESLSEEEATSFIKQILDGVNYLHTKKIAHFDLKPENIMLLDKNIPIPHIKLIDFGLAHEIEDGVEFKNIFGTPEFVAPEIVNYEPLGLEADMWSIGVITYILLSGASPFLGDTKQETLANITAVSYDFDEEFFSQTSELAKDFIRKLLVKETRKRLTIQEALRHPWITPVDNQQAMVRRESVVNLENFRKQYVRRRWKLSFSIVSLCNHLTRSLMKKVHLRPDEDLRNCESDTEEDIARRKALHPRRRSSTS

Tyrosine-protein kinase BTK (Homo sapiens), sequence (Q06187 whole entry): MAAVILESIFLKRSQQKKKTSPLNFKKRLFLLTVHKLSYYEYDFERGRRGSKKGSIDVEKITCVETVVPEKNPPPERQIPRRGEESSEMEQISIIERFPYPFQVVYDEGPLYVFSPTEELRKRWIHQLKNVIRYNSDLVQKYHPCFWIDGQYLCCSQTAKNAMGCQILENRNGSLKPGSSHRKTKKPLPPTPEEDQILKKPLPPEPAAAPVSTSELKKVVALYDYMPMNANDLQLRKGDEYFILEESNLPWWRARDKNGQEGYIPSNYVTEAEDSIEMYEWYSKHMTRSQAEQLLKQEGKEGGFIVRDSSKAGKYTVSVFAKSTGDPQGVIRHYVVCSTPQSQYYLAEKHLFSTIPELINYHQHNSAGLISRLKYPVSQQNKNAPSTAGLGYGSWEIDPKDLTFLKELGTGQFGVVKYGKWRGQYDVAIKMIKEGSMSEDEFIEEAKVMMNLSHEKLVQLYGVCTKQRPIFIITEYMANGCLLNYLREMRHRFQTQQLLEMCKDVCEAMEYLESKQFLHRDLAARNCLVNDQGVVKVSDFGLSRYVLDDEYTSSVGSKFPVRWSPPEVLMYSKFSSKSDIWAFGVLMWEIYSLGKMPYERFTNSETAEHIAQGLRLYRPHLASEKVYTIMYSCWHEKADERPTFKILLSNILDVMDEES
Tyrosine-protein kinase HCK (Homo sapiens), sequence (P08631 2-526 limits assumed): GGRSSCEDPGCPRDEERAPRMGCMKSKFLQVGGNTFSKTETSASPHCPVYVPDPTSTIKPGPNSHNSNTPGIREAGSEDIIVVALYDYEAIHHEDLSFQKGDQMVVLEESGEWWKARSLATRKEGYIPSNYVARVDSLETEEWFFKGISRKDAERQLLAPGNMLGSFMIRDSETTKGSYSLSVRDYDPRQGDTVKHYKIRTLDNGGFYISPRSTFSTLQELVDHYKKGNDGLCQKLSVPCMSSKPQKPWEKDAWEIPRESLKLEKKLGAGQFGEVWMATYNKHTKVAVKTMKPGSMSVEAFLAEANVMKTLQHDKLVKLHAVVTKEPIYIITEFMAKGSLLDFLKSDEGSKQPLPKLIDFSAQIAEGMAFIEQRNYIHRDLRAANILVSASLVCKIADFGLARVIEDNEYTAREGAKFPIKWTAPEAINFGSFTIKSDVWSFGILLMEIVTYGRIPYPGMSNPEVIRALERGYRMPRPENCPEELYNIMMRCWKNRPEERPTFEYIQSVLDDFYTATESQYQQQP
Ephrin type-A receptor 7 (Homo sapiens), sequence (Q15375 28-998 limits assumed): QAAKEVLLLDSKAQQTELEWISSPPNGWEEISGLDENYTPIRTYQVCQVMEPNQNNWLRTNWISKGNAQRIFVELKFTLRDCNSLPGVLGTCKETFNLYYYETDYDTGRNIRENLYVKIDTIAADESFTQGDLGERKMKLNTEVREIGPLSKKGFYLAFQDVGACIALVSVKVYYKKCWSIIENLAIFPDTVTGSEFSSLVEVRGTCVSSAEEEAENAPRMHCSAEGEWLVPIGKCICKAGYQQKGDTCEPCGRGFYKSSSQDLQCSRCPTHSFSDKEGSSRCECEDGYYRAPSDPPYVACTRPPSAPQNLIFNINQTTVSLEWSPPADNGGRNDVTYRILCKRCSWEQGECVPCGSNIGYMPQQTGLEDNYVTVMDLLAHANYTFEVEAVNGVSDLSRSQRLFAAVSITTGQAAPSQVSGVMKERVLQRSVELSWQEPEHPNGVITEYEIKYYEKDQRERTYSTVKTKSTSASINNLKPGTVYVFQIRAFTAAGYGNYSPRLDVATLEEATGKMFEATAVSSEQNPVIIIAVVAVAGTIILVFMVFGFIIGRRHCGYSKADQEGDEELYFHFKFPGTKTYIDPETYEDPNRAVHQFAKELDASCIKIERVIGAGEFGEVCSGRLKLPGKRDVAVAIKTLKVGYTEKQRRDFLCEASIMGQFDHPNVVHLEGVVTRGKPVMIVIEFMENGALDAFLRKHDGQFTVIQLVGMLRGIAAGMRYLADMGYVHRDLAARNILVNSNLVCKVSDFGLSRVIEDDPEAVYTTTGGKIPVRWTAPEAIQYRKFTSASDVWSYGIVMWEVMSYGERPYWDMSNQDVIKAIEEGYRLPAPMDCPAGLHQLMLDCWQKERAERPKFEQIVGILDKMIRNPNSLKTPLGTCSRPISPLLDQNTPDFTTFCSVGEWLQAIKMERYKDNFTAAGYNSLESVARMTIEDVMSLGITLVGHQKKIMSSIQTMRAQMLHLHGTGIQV
Dual specificity mitogen-activated protein kinase kinase 1 (Homo sapiens), sequence (Q02750 whole entry): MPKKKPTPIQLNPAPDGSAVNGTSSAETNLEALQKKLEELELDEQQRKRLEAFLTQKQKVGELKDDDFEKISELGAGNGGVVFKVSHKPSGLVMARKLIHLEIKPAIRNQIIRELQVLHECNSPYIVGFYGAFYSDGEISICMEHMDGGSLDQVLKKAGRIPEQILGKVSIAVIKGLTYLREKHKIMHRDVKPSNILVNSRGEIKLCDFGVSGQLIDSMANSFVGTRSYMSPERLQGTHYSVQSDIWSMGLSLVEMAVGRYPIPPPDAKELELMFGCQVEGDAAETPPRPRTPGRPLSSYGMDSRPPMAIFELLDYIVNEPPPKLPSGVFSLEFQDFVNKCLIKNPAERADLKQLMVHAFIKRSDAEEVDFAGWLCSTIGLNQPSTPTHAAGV
Mitogen-activated protein kinase 10 (Homo sapiens), sequence (P53779 whole entry): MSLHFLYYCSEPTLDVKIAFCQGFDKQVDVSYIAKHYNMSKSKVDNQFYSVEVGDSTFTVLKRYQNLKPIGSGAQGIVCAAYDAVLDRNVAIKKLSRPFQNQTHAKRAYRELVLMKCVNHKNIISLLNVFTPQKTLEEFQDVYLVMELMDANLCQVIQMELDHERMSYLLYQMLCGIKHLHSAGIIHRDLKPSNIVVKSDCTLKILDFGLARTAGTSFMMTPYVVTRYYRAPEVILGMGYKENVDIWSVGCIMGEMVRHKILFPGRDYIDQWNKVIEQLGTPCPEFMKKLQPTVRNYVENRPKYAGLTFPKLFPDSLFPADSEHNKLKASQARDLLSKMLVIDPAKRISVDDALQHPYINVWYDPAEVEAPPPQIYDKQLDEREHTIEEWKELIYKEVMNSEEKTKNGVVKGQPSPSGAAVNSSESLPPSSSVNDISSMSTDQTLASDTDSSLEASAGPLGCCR

Compound | residual activity [1] [%] | residual activity [2] [%] | residual activity [3] [%] | residual activity [4] [%] | residual activity [5] [%] | residual activity [6] [%] | residual activity [7] [%] | residual activity [8] [%] | residual activity [9] [%] | residual activity [10] [%]
Cc1ccc2cc(-c3n[nH]c4ccc(NC5CCN(Cc6ccccc6)CC5)cc34)[nH]c2c1 | -4 | 7 | 7 | 85 | 38 | 14 | 16 | 98 | 96 | 106
Cc1ccc2cc(-c3n[nH]c4ccc(NC5CCNC5)cc34)[nH]c2c1 (stereo not given) | 10 | 0 | 2 | 15 | 69 | 29 | 16 | 73 | 51 | 91
